Data as given in the NIST ThermoML archive (doi:10.1016/j.jct.2011.06.012).

Test: xn = mol fraction of the nth substance listed
Conditions: Liquid, Bellows volumetry

CC(C)C [2-methylpropane] + O=C=O
mass density [kg/m3]
Conditions | 280 K | 300 K | 320 K | 340 K | 360 K | 380 K | 400 K | 420 K | 440 K
3000 kPa, x2 = 0.2482 | 611.63 | – | – | – | – | – | – | – | –
3000 kPa, x2 = 0.4718 | 651.84 | – | – | – | – | – | – | – | –
5000 kPa, x2 = 0.2482 | 615.96 | – | 552.16 | – | – | – | – | – | –
5000 kPa, x2 = 0.4718 | 658.57 | 614.91 | 560.46 | – | – | – | – | – | –
5000 kPa, x2 = 0.7506 | 741.3 | – | – | – | – | – | – | – | –
10000 kPa, x2 = 0.2482 | 625.46 | – | 569.21 | – | 501.22 | – | 408.28 | – | –
10000 kPa, x2 = 0.4718 | 672.04 | 634.66 | 592.64 | 543.45 | 481.3 | – | – | – | –
10000 kPa, x2 = 0.7506 | 765.85 | – | 614.39 | – | – | – | – | – | –
20000 kPa, x2 = 0.2482 | 641.52 | – | 593.88 | – | 542.86 | – | 486.62 | – | 428.1
20000 kPa, x2 = 0.4718 | 693.75 | 662.67 | 630.32 | 596.56 | 560.5 | 521.68 | 481.65 | 441.54 | 402.95
20000 kPa, x2 = 0.7506 | 800.45 | – | 697.56 | – | 574.95 | – | – | – | –
30000 kPa, x2 = 0.2482 | 655.06 | – | 611.98 | – | 568.79 | – | 523.46 | – | 479.05
30000 kPa, x2 = 0.4718 | 710.92 | 683.38 | 655.66 | 627.77 | 598.86 | 568.93 | 539.19 | 509.95 | 481.23
30000 kPa, x2 = 0.7506 | 826.02 | – | 740.51 | – | 649.75 | – | 557.06 | – | 473.55
40000 kPa, x2 = 0.2482 | 665.95 | – | 627.15 | – | 588.52 | – | 548.72 | – | 511.07
40000 kPa, x2 = 0.4718 | 725.26 | 700.1 | 675.36 | 650.8 | 625.7 | 600.05 | 574.86 | 550.57 | 526.82
40000 kPa, x2 = 0.7506 | 846.38 | – | 771.26 | – | 694.72 | – | 618.58 | – | 548.5
50000 kPa, x2 = 0.2482 | 676.07 | – | 639.69 | – | 604.55 | – | 568.35 | – | 534.44
50000 kPa, x2 = 0.4718 | 737.44 | 714.21 | 691.66 | 669.07 | 646.76 | 623.65 | 601.24 | 579.87 | 559.05
50000 kPa, x2 = 0.7506 | 863.38 | – | 795.16 | – | 727.44 | – | 660.8 | – | 599.76
60000 kPa, x2 = 0.2482 | 684.83 | – | 650.61 | – | 617.73 | – | 584.33 | – | 553.6
60000 kPa, x2 = 0.4718 | 748.54 | 726.58 | 705.67 | 684.42 | 664.02 | 642.83 | 622.39 | 602.9 | 584.01
60000 kPa, x2 = 0.7506 | 878.75 | – | 815.43 | – | 753.47 | – | 693.37 | – | 637.87
70000 kPa, x2 = 0.2482 | 693.01 | – | 660.32 | – | 629.43 | – | 598.36 | – | 569.47
70000 kPa, x2 = 0.4718 | 758.63 | 737.54 | 717.84 | 697.86 | 678.79 | 658.77 | 640.1 | 622.11 | 604.56
70000 kPa, x2 = 0.7506 | 892.04 | – | 832.58 | – | 775.21 | – | 719.26 | – | 668.37
80000 kPa, x2 = 0.2482 | 700.46 | – | 669.23 | – | 639.78 | – | 610.26 | – | 583.24
80000 kPa, x2 = 0.4718 | 767.66 | 747.72 | 728.73 | 709.95 | 691.87 | 672.89 | 655.36 | 638.65 | 622.24
80000 kPa, x2 = 0.7506 | 904.12 | – | 847.76 | – | 793.79 | – | 741.54 | – | 694.04
90000 kPa, x2 = 0.2482 | 707.4 | – | 677.43 | – | 649.26 | – | 620.93 | – | 595.28
90000 kPa, x2 = 0.4718 | 775.73 | 756.68 | 738.7 | 720.77 | 703.51 | 685.61 | 668.68 | 652.88 | 637.3
90000 kPa, x2 = 0.7506 | 915.3 | – | 861.33 | – | 810.34 | – | 760.76 | – | 716.21
100000 kPa, x2 = 0.2482 | 713.94 | – | 685.01 | – | 658 | – | 630.87 | – | 606.31
100000 kPa, x2 = 0.4718 | 783.73 | 764.82 | 748.11 | 730.63 | 714.09 | 697.01 | 680.77 | 665.6 | 650.87
100000 kPa, x2 = 0.7506 | 925.43 | – | 873.81 | – | 825.34 | – | 778 | – | 735.56
120000 kPa, x2 = 0.2482 | 725.79 | – | 698.63 | – | 673.4 | – | 647.91 | – | 625.43
120000 kPa, x2 = 0.4718 | 797.65 | 780.34 | 764.51 | 748.22 | 733.04 | 716.82 | 701.98 | 688.04 | 674.34
120000 kPa, x2 = 0.7506 | 944.22 | – | 895.88 | – | 851.1 | – | 807.55 | – | 768.56
140000 kPa, x2 = 0.2482 | 736.43 | – | 710.75 | – | 686.88 | – | 662.89 | – | 641.8
140000 kPa, x2 = 0.4718 | 810.05 | 794.03 | 778.96 | 764.19 | 749.43 | 734.35 | 720.03 | 707.29 | 694.6
140000 kPa, x2 = 0.7506 | 960.61 | – | 915.09 | – | 872.92 | – | 832.23 | – | 796.08
160000 kPa, x2 = 0.2482 | 746.22 | – | 721.58 | – | 699.29 | – | 675.97 | – | 656.01
160000 kPa, x2 = 0.4718 | 821.36 | 805.98 | 791.76 | 777.55 | 763.95 | 749.48 | 735.72 | 723.63 | 711.68
160000 kPa, x2 = 0.7506 | 975.64 | – | 932.24 | – | 892.29 | – | 854.07 | – | 819.85
180000 kPa, x2 = 0.2482 | 755.07 | – | 731.49 | – | 710.13 | – | 687.97 | – | 668.66
180000 kPa, x2 = 0.4718 | 831.97 | 817 | 803.87 | 790.06 | 777.13 | 763.2 | 749.97 | 738.5 | 726.86
180000 kPa, x2 = 0.7506 | 989.13 | – | 947.81 | – | 909.66 | – | 873.25 | – | 840.83
200000 kPa, x2 = 0.2482 | 763.28 | – | 740.45 | – | 720.21 | – | 698.66 | – | 680.35
200000 kPa, x2 = 0.4718 | 841.63 | 827.43 | 814.43 | 801.25 | 789.12 | 775.73 | 763.13 | 752.04 | 741.37
200000 kPa, x2 = 0.7506 | 1001.91 | – | 962.05 | – | 925.27 | – | 890.48 | – | 859.57
